Source: ChEMBL document CHEMBL1144822, “Gymnastatins and dankastatins, growth inhibitory metabolites of a gymnascella species from a Halichondria sponge” (2008)
Values after ≈ are worked out from the molar mass of the structure shown.

What was measured:
P388 = experiment: Growth inhibition of mouse P388 cells; format: functional; details: read-out: ED50 (the source's name)
MKN-7 = experiment: Growth inhibition of human MKN7 cells; format: functional; details: read-out: Log10GI50 (converted)
[1] = tested on: 39 human cancer cell line panel (Homo sapiens); experiment: Growth inhibition of 39 human cancer cell line panel; details: read-out: Log10GI50 (converted)
[2] = Growth inhibition of human BSY1 cells; format: functional; details: BSY-1, read-out: Log10GI50 (converted)

SMILES: CCCCCC[C@@H](C)/C=C(C)/C=C/C(=O)N[C@H]1C[C@@]2(O)C=C(Cl)C(=O)[C@@H](Cl)[C@H]2O[C@@H]1OC [DANKASTATIN A]
- EC50 (P388): 0.15 µg/mL (≈ 0.307 µM)

SMILES: CCCCCC[C@@H](C)/C=C(C)/C=C/C(=O)N[C@H]1C[C@]2(O)C=C(Cl)C(=O)[C@@](Cl)(C2)[C@H]1O [GYMNASTATIN R]
- EC50 (P388): 2.8 µg/mL (≈ 6.11 µM)

SMILES: CCCCCC[C@@H](C)/C=C(C)/C=C/C(=O)N[C@H]1C[C@]2(O)C=C(Cl)C(=O)[C@](Cl)([C@@H]1O)[C@H]2OC [GYMNASTATIN Q]
- GI50 (MKN-7): 6.76 µM
- EC50 (P388): 1.7 µg/mL (≈ 3.48 µM)
- GI50 [1]: 15.5 µM
- GI50 [2]: 3.39 µM

SMILES: CCCCCC[C@@H](C)/C=C(C)/C=C/C(=O)N[C@@H]1CO[C@H]2[C@@H](Cl)C(=O)C(Cl)=C[C@@]2(O)C1 [DANKASTATIN B]
- EC50 (P388): 0.16 µg/mL (≈ 0.349 µM)
